Experimental data from publication PMC7403315, “Cyclic peptide FXII inhibitor provides safe anticoagulation in a thrombosis model and in artificial lungs” (Nature Communications, 2020).
Starred links: 1 amine or outer side, 2 acyl side, 3 side chain; linkers in the order of their positions; H or OH if unused. Positions of bridges follow the written chain, without caps; N, C: chain ends. Non-standard residues stand in square brackets, D forms with d. Residues, ends and D or L forms follow the SMILES beside them. TATA = O=C(CC[*:1])N1CN(C(=O)CC[*:2])CN(C(=O)CC[*:3])C1; Phe(4-F) = N[C@@H](Cc1ccc(F)cc1)C(=O)O; β3hR = N=C(N)NCCC[C@H](N)CC(=O)O

Columns and labels:
[1] = target: T1, human β-FXIIa (Homo sapiens, UniProt P00748); assay: FXIIa protease inhibition assay with fluorogenic substrate Boc-Gln-Gly-Arg-AMC; assay type: biochemical; details: purified peptide without coumarin label; read-out: Ki human FXIIa
T1 construct: human β-FXIIa (Molecular Innovations cat #); purchased Molecular Innovations HFXIIAB; host or cells: human blood
Procedure: (§1) In order to test the inhibitory activity of peptides without prior purification, we developed the following method. […] After solid-phase peptide synthesis, cleavage, and ether precipitation, the peptides were chemically cyclized and their Ki values were determined in a FXIIa activity assay using a fluorogenic substrate.
(§2) Protease inhibition assays
(§3) The inhibitory activity of peptides was determined by measuring the residual protease activity with a fluorogenic substrate. The assay was performed in buffer containing 10 mM Tris-Cl, pH […]
(§4) 1% (v/v) DMSO in a volume of 150 µl. FXIIa activity was measured with the fluorogenic substrate Boc-Gln-Gly-Arg-AMC (Bachem) at a final concentration of 50 µM. Mouse α-FXIIa (Molecular Innovations cat # MFXIIA) and human β-FXIIa (Molecular Innovations cat # HFXIIAB) were used at final concentrations of 0.4 nM. The reaction was pipetted as follows: 50 µl of bicyclic peptide in assay buffer were added to 50 µl of FXIIa in assay buffer and incubated for 10 minutes at 25°C before 50 µl of 150 µM fluorogenic substrate in assay buffer were added to measure the residual protease activity with an Infinite M200Pro fluorescence plate reader (excitation at 368 nm, emission at 467 nm; Tecan) for a period of 30 minutes with a read every minute at 25°C. The Tecan software i-control (version 1.1) was used for data analysis. Stock solutions of 1 mM bicyclic peptide were prepared by either dissolving the unpurified cyclization reaction with water or by dissolving purified and lyophilized peptide in water. The bicyclic peptides were serially diluted two-fold using assay buffer. Sigmoidal curves were fitted to the data using the following dose response equation (1), wherein x = peptide concentration, y = % protease activity, and p = Hill slope. IC50 values were derived from the fitted curve.
(§5) The inhibition constants (Ki) were calculated according to the equation of Cheng and Prusoff, Ki = IC50/(1+([S]0/Km), wherein IC50 is the functional strength of the inhibitor, [S]0 is the total substrate concentration, and Km is the Michaelis-Menten constant. […]
(§6) the substrate Boc-Gln-Gly-Arg-AMC. […]

[2] = target: T2, Mouse α-FXIIa (Mus musculus, UniProt Q80YC5); assay: as above; assay type: biochemical; details: purified peptide without coumarin label; read-out: Ki mouse FXIIa
T2 construct: Mouse α-FXIIa; purchased Molecular Innovations MFXIIA
T2 sequence (Q80YC5 355-597 limits assumed): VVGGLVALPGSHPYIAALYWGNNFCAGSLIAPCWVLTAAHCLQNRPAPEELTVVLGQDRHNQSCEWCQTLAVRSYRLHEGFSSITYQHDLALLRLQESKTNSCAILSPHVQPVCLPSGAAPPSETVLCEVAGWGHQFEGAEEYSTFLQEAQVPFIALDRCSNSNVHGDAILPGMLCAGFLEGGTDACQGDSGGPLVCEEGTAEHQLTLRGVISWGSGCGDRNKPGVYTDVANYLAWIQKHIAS
T2 sequence (Q80YC5 20-354 limits assumed): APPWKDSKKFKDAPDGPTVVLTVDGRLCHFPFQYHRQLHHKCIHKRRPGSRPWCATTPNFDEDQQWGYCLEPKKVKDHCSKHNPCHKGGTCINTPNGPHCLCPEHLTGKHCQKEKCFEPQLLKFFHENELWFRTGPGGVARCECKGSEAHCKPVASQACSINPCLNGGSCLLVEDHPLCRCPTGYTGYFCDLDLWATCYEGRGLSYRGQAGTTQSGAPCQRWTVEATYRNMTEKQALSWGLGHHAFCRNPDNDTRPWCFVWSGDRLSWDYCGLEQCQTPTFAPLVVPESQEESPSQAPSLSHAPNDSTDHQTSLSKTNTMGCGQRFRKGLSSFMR
Procedure: as §1, §2, §3, §4, §5, §6

T1 sequence (P00748 373-615 limits assumed, other chains not shown): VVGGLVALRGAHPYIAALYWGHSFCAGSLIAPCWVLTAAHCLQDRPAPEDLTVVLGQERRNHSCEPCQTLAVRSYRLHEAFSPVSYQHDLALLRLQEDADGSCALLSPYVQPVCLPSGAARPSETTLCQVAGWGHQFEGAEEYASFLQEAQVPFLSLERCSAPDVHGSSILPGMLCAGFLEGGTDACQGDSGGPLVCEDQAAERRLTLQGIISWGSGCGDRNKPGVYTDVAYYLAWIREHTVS

SMILES	Ki [1] [nM]	Ki [2] [nM]
CC(C)C[C@@H]1NC(=O)[C@H](CCC(N)=O)NC(=O)[C@H](CCCNC(=N)N)NC(=O)[C@@H]2CSCCC(=O)N3CN(CN(C3)C(=O)CCSC[C@H](NC(=O)[C@@H](CO)NC(=O)[C@H](N)CCCNC(=N)N)C(=O)N[C@@H](Cc3ccc(F)cc3)C(=O)N[C@@H](CCCNC(=N)N)C(=O)N[C@@H](CC(C)C)C(=O)N3CCC[C@H]3C(=O)N2)C(=O)CCSC[C@@H](C(=O)N[C@@H](CCCNC(=N)N)C(N)=O)NC(=O)C[C@H](CCCNC(=N)N)NC1=O [Arg8His reverted] (H-[dR][dS]C[Phe(4-F)]RLPCRQL[β3hR]CR-NH2; linker 3-8-13 via TATA)	0.31 ± 0.02	0.91 ± 0.04
CC(C)C[C@@H]1NC(=O)[C@H](CCC(N)=O)NC(=O)[C@H](Cc2c[nH]cn2)NC(=O)[C@@H]2CSCCC(=O)N3CN(CN(C3)C(=O)CCSC[C@H](NC(=O)[C@@H](CO)NC(=O)[C@H](N)CCCNC(=N)N)C(=O)N[C@@H](Cc3ccc(F)cc3)C(=O)N[C@@H](CCCNC(=N)N)C(=O)N[C@@H](CC(C)C)C(=O)N3CCC[C@H]3C(=O)N2)C(=O)CCSC[C@@H](C(=O)N[C@@H](CCCNC(=N)N)C(N)=O)NC(=O)[C@H](CCCNC(=N)N)NC1=O [Arg11βhArg reverted] (HELM PEPTIDE1{[dR].[dS].C.[O=C([C@H](Cc1ccc(F)cc1)N[*:1])[*:2]].R.L.P.C.H.Q.L.R.C.R.[am]}|CHEM1{[O=C(CC[*:1])N1CN(C(=O)CC[*:2])CN(C(=O)CC[*:3])C1]}$PEPTIDE1,CHEM1,3:R3-1:R1|PEPTIDE1,CHEM1,8:R3-1:R2|PEPTIDE1,CHEM1,13:R3-1:R3$$$V2.0)	0.51 ± 0.1	0.9 ± 0.4
